For the first series the following is noted: acidic group.
For `CCCOc1ccc(C(=O)O)cc1`, the pKa turned out to be 4.63.
Turning to `CC1(C)OC(=O)C[C@H]2[C@@H](C(=O)O)[NH2+]C[C@H]21`, the pKa was determined as 2.27.
`O=C(O)C[NH+](CCNS(=O)(=O)c1ccccc1)CC(=O)O` yielded a pKa of 2.1. This pKa and that of the molecule before are within 0.2 log units of each other.
As to `Cc1cccc(-c2nnn[nH]2)c1`, the pKa was found to be 4.15.
`O=C(O)C1(C(=O)O)CCCC1`: the pKa stood at 3.24.
Take `CCOc1ccccc1/C=C\C(=O)O`: the pKa is 4.35.
Still for that read-out and setting: the result for `O=C(O)/C=C(\I)c1ccccc1` reads 3.4; that for `CCC([NH3+])C(=O)O` (stereo unspecified), 2.29; that for `CC/C=C/Cc1nccn1[C@H](C(=O)[O-])C(C)(C)S`, 10.4.
Regarding `CC=C=CC(C)(C)C(=O)O`, the pKa worked out at 4.58.
`COCC(=O)NN` came in with a pKa of 12.1.
`CCOc1ccccc1/C=C/C(=O)O` displayed a pKa of 4.68.
`O=[N+]([O-])c1ccc(O)c(C[NH+]2CCOCCOCCOCCOCC2)c1` displayed a pKa of 5.79.
As to `Cc1ccc(OC(O)(CBr)c2ccccc2)cc1` (stereo unspecified), the pKa stood at 11.2.
On the same count and under the same terms, the result for `Nc1cc(N2CCOCC2)nc(N)n1` reads -0.35; that for `O=C(O)c1ccc[nH]1`, 4.35; that for `Nc1cccc(N)c1O`, 10.5.
The same measure, in the same setting: the result for `COc1ccc(NC(=S)c2ccccc2)cc1` reads 11.4; that for `O=C1OCC(O)=C1O`, 4.4; that for `Cc1ccc(Br)c(C(=O)O)c1`, 3.
Regarding `N#Cc1c[nH+]c2ccccc2c1O`, the pKa was -2.08.
Same read-out and setting: the result for `CCC(C)NC(C#N)=C(C#N)C#N` (stereo unspecified) reads 6.35.
In the case of `CC(N)c1nnn[n-]1` (stereo unspecified), the pKa was 8.77.
Regarding `N#Cc1ccc(O)c(O)c1`, the pKa is 7.72.
With `O=C1OC2C3CC4C2C4(C(=O)O)C13Br` (stereo unspecified), the pKa amounted to 3.5.
On to `Cn1cnc2c(O)[nH+]cnc21`, for which the pKa worked out at 1.86.
On to `CC(c1cccc([N+](=O)[O-])c1)[N+](=O)[O-]` (stereo unspecified), for which the pKa came to 6.67.
The molecule `CCC1(c2ccccc2)C(=O)NC(=S)NC1=O` showed a pKa of 6.3.
In turn, `CCC(=O)OO` registered a pKa of 8.1.
As to `Cc1cccc(=O)c(O)c1`, the pKa came to 7.26.
The molecule `COc1ccc(C(=S)Nc2ccc(Cl)cc2)cc1` returned a pKa of 10.9.
Consider `CC(=O)/C(=N\O)C(C)C`, for which the pKa was 9.5.
On the same count and under the same terms, the result for `Oc1ccc2ccccc2c1` reads 9.6.
Regarding `CC(=O)c1ccc(O)c(O)c1`, the pKa amounted to 7.8.
Regarding `Cc1cccc(/C=C/C(=O)O)c1`, the pKa came out at 4.44.
As for `CC(C)C[C@H]([NH3+])C(=O)N[C@@H](Cc1c[nH]c[nH+]1)C(=O)O`, the pKa turned out to be 2.76.
Same read-out and setting: the result for `Cc1ccc(C(=S)Nc2ccc(Cl)c(Cl)c2)cc1` reads 10.2.
`SCC[NH2+]Cc1ccccc1` registered a pKa of 7.86.
For the molecule `Oc1c(Cc2ccccc2)c(-c2ccccc2)nn1-c1ccccc1`, the pKa worked out at 7.6.
As to `CS(=O)(=O)c1ccc(S(=O)(=O)NCc2ccccc2)cc1`, the pKa was 10.2.
Still for that read-out and setting: with `O=C(O)c1ccc2sc(Cn3cc[nH+]c3)cc2c1` the figure was 3.9.
`O=C(O)c1ccsc1` registered a pKa of 4.03.
With `Oc1ccc2ncncc2c1`, the pKa was found to be 8.19.
In turn, `Oc1ccc2cnc3ccccc3c2c1` returned a pKa of 8.43.
For `C[N+](C)(C)c1ccc(O)c([N+](=O)[O-])c1`, the pKa is 5.03.
The molecule `C[N+](C)(C)CCCc1ccccc1O` registered a pKa of 9.78.
As for `CO/C([O-])=N/c1ncnc2nc[nH]c12`, the pKa amounted to 12.1.
The molecule `O=C(O)C1=C/C=C\C=C/C=C\1` yielded a pKa of 4.4.
`CCC(CC)C1(CC)C(=O)NC(=S)NC1=O` gave a pKa of 7.46.
As to `S=C(Nc1ccc(Br)cc1)c1ccccc1`, the pKa turned out to be 10.4.
On to `C/C=C/CC(=O)O`, for which the pKa worked out at 4.28.
The molecule `[NH3+][C@H]1CONC1=O` yielded a pKa of 4.54.
On to `Cn1c(CCl)nc2c(O)ccc(O)c21`, for which the pKa came out at 8.4.
Same read-out and setting: with `Oc1cc[nH+]c2cccnc12` the figure was 2.85; with `O=S1(=O)N=CNc2nc[nH]c21`, 5.59; with `CCOC(=O)C(Cc1ccccc1)C(C)=O` (stereo unspecified), 11.8.
The molecule `O=C1CCC(=O)N1` returned a pKa of 9.59.
The same measure, in the same setting: the result for `C=C[C@@H]1CNC(=S)O1` reads 10.2; that for `CC(C)C1CC(CC(=O)O)[NH2+]C1C(=O)[O-]` (stereo unspecified), 4.
As for `O=C(O)C[NH+](CC(=O)O)Cc1cc([N+](=O)[O-])ccc1O`, the pKa came to 2.4.
On to `C/C=C\C=C/C(=O)O`, for which the pKa was 4.51.

The same series, now with this note: basic group.
As to `CSc1nccc2ccccc12`, the pKa was found to be 3.93.
Regarding `[NH3+]/N=C/c1ncnc2nc[nH]c12`, the pKa was 2.8.
In the case of `ClCC1CN2CCC1CC2` (stereo unspecified), the pKa was 10.2.
In the case of `CC(C)/[NH+]=C/N(C)c1ccc(-c2c[nH]cn2)cc1`, the pKa was 5.25.
On the same count and under the same terms, the result for `CN1[C@@H]2CC[C@H]1C[C@@H](O)C2` reads 9.86; that for `COC(=O)c1ccccn1`, 2.21.
Molecule `CCCc1ccnc2c1ccc1cccnc12` had a pKa of 5.45.
Molecule `C[NH+](C)CCC/N=C(\c1ccccc1)c1ccccc1Cl` came in with a pKa of 3.46.
On the same count and under the same terms, the result for `Cc1ccccc1/C=C/c1ccc(N(C)C)cc1` reads 4.59.
The molecule `[NH3+]C(Cc1cnc[nH]1)C(=O)NCC(=O)[O-]` (stereo unspecified) came in with a pKa of 6.67.
Still for that read-out and setting: the result for `CC(N)C/C(N)=N/O` (stereo unspecified) reads 9.15; that for `NC(=[NH2+])Nc1nccc(-c2csc(N)n2)n1`, 2.7; that for `COCCNc1ccc(C)cc1`, 4.64.
Consider `CCOCCNc1cccc(C)c1`, for which the pKa came to 4.24.
Same read-out and setting: with `NC(=S)NCc1ccccc1` the figure was 0.86; with `Cn1c([O-])[nH+]c2cnc([O-])nc21`, 8.74; with `Nc1ccc2cc3ccc(Cl)cc3nc2c1`, 7.26.
In the case of `CC/C=C/Cc1nccn1[C@H](C(=O)[O-])C(C)(C)S`, the pKa was determined as 7.2.
`CCCCCCCCCCCCCCCCN(CC(O)CC)CC(O)CC` (stereo unspecified) yielded a pKa of 5.6.
`C[C@@H]1[C@@H](N)[C@H]1N` registered a pKa of 8.98.
In turn, `COc1c(Br)cccc1C(=O)N[C@@H]1C[C@H]2CC[C@@H](C1)N2Cc1ccccc1` returned a pKa of 8.73.
On to `Nc1cc(N2CCOCC2)nc(N)n1`, for which the pKa turned out to be 6.73.
For the molecule `O=C(O)c1ccc[nH]1`, the pKa is -0.65.
`Cc1cc(C)n(-c2cc(C)n(C)n2)n1` showed a pKa of 2.19.
The same measure, in the same setting: with `Nc1cccc(N)c1O` the figure was 5.5; with `Nc1cc(Br)cc(Br)c1`, 2.49.
In turn, `CCNC(=O)C1CCCCN1` (stereo unspecified) displayed a pKa of 8.6.
Take `C[C@]1([NH3+])C[C@@H]1N`: the pKa was determined as 5.83.
Consider `CC(=O)CCN1CCOCC1`, for which the pKa stood at 6.66.
As to `NCCCCC(=O)[O-]`, the pKa was 10.8.
The molecule `Cn1ncc2cncnc21` registered a pKa of 2.5.
The same measure, in the same setting: with `C=CCN(CC=C)CC=C` the figure was 8.31.
On the same count and under the same terms, with `CCCCNCCC#N` the figure was 8.3; with `COc1cc(N)cc(C(=O)N[C@@H]2C[C@H]3CC[C@@H](C2)N3Cc2ccccc2)c1OC`, 9.07.
On to `Nc1ccc2c(c1O)Cc1ccccc1-2`, for which the pKa was 4.82.
Turning to `NCCNCCO`, the pKa is 9.67.
The same measure, in the same setting: with `Cn1ccc(=N)cc1` the figure was 12.5.
Still for that read-out and setting: with `CCCC(=O)C1(c2cccc(O)c2)CCN(C)CC1` the figure was 8.62; with `CNNC`, 5.2; with `CCCNC(=O)[C@H](Cc1c[nH]c[nH+]1)NC(=O)c1cccc(CNCC[NH3+])n1`, 5.9.
For the molecule `CCOC(=O)C1CC2CCN1CC2` (stereo unspecified), the pKa was 8.8.
As for `CC(C)(C)c1ccccn1`, the pKa was determined as 5.72.
`Cc1cnc2c([S-])ncnc2n1` yielded a pKa of 7.02.
`COc1ccc(N(C)C)cc1` registered a pKa of 5.86.
The molecule `Nc1ccc(S(=O)(=O)Nc2cccc[nH+]2)cc1` gave a pKa of 1.
In turn, `CCN(CC)CC(=O)Nc1c(C)cc(C)cc1C` registered a pKa of 7.9.
The molecule `[O-]c1cnnc2ccccc12` gave a pKa of 9.27.
With `[NH3+]CCCCc1ccncc1`, the pKa worked out at 5.81.
In the case of `CC(=O)Nc1cccc2cc3ccccc3nc12`, the pKa turned out to be 3.
Consider `CCSC(=O)c1ccc(OC)cc1`, for which the pKa is -3.77.
Still for that read-out and setting: with `O=[N+]([O-])c1ccc2[nH]ncc2c1` the figure was 0.13.
As for `NC(=O)CCCCc1ccccn1`, the pKa was found to be 5.73.
With `C1CCN2C[C@@H]3C[C@@H](CN4CCCC[C@@H]34)[C@H]2C1`, the pKa came to 11.3.
On the same count and under the same terms, with `OCC1CC2CCN1CC2` (stereo unspecified) the figure was 10.8; with `CCCCCN(CC(O)CC)CC(O)CC` (stereo unspecified), 9.2; with `C1CNCCSCCN1`, 10.
Turning to `Cc1cc(-c2ccccc2)nn2c(CN3CCOCC3)cnc12`, the pKa amounted to 6.01.
`Oc1ccc2ncncc2c1` registered a pKa of 3.12.
As for `Cc1ccc(-c2cnc(-c3ccc(C)cc3)o2)cc1`, the pKa worked out at 1.12.
Molecule `Oc1ccc2cnc3ccccc3c2c1` yielded a pKa of 5.35.
Take `[NH3+]c1ccc(-c2cnc(-c3ccccc3)o2)cc1`: the pKa was determined as 0.5.
On the same count and under the same terms, with `Cc1c(Br)cc(N)cc1Br` the figure was 2.87; with `C/C(CN(C)C)=N\[O-]`, 10.9.
Consider `COc1ncnc2ccccc12`, for which the pKa stood at 3.13.
On to `OCCC[C@@H]1CC[C@@H]2CCCN12`, for which the pKa was determined as 11.5.
For `N[C@H]1C[C@H]2CCCC[C@@H]2C[C@@H]1[NH3+]`, the pKa turned out to be 6.68.
For `CC1(C)CC2CCN1C(=O)C2` (stereo unspecified), the pKa is 5.33.
Still for that read-out and setting: with `CCCCN1CCCCC1` the figure was 10.5.
`C1CC2CCCN2C1` yielded a pKa of 11.7.
As for `CCN1CCC[C@@H]1CNC(=O)c1c([O-])cccc1OC`, the pKa came out at 9.54.
Regarding `CC(C)[C@@]12CN[C@@H](C(=O)[O-])[C@@H]1CC(=O)O2`, the pKa is 7.8.
Molecule `CC(C=C(c1cccs1)c1cccs1)N1CCCCCCC1` (stereo unspecified) yielded a pKa of 7.52.
Still for that read-out and setting: with `CCc1nc2cc3c(cc2[nH]1)CCCC3` the figure was 6.64.
Still for that read-out and setting: the result for `Cn1c(CCl)nc2c(O)ccc(O)c21` reads 4.03.
Same read-out and setting: the result for `Cn1cnc(=O)c(-c2ccccc2)c1` reads 1.99; that for `NCc1cccc(O)c1O`, 8.3.
Molecule `Cc1ccnc(N)n1` came in with a pKa of 4.2.
As to `Cc1ccc2c(ccn2C)c1`, the pKa was -2.15.
On the same count and under the same terms, the result for `c1ccc(-c2ccncc2)nc1` reads 4.77; that for `O=C(N[C@@H]1C[C@H]2CC[C@@H](C1)N2Cc1ccccc1)c1cccc2c1OCCO2`, 8.68.

Source of the values: the pKa sets of Baltruschat and Czodrowski (2020).
